Laboratory results reported in ChEMBL document CHEMBL5724914, “Linking interpersonal differences in gut microbiota composition and drug biotransformation activity” (2024).
Blank lines part the entries; values can stand above or below the compound they belong to.

Experiments:
[1] = (§1) The drug is tested on WLS-350 corresponding to human gut metagenome with ENA study accession number: PRJEB37062 and ENA sample accession number: ERS12561789 for biotransformation under anaerobic condition. The drug concentrations were measured over 9 timepoints collected between 0 and 24 hours of incubation by liquid-chromatography-coupled mass spectrometry (LC–MS); details: 2 µM
[2] = human gut metagenome, 24 h, 2 µM
[3] = human gut metagenome, 24 h, 2 µM; remark: listed apart in the source
[4] = human gut metagenome, 24 h, 2 µM; remark: listed apart in the source
[5] = as §1, with “WLS-310” for “WLS-350”, “ERS12561785” for “ERS12561789”; details: 2 µM
[6] = as §1, with “WLS-240” for “WLS-350”, “ERS12561773” for “ERS12561789”; details: 2 µM
[7] = human gut metagenome, 24 h, 2 µM; remark: listed apart in the source
[8] = human gut metagenome, 24 h, 2 µM; remark: listed apart in the source
[9] = as §1, with “WLS-090” for “WLS-350”, “ERS12561753” for “ERS12561789”; details: 2 µM
[10] = human gut metagenome, 24 h, 2 µM; remark: listed apart in the source
[11] = human gut metagenome, 24 h, 2 µM; remark: listed apart in the source
[12] = human gut metagenome, 24 h, 2 µM; remark: listed apart in the source
[13] = human gut metagenome, 24 h, 2 µM; remark: listed apart in the source
[14] = human gut metagenome, 24 h, 2 µM; remark: listed apart in the source
[15] = human gut metagenome, 24 h, 2 µM; remark: listed apart in the source
[16] = as §1, with “WLS-006” for “WLS-350”, “ERS12561741” for “ERS12561789”; details: 2 µM
[17] = as §1, with “WLS-038” for “WLS-350”, “ERS12561745” for “ERS12561789”; details: 2 µM
[18] = human gut metagenome, 24 h, 2 µM; remark: listed apart in the source
[19] = human gut metagenome, 24 h, 2 µM; remark: listed apart in the source
[20] = human gut metagenome, 24 h, 2 µM; remark: listed apart in the source
[21] = as §1, with “WLS-007” for “WLS-350”, “ERS12561742” for “ERS12561789”; details: 2 µM
[22] = as §1, with “WLS-073” for “WLS-350”, “ERS12561749” for “ERS12561789”; details: 2 µM
[23] = human gut metagenome, 24 h, 2 µM; remark: listed apart in the source
[24] = human gut metagenome, 24 h, 2 µM; remark: listed apart in the source
[25] = human gut metagenome, 24 h, 2 µM; remark: listed apart in the source
[26] = human gut metagenome, 24 h, 2 µM; remark: listed apart in the source
[27] = human gut metagenome, 24 h, 2 µM; remark: listed apart in the source
[28] = human gut metagenome, 24 h, 2 µM; remark: listed apart in the source
[29] = as §1, with “WLS-077” for “WLS-350”, “ERS12561750” for “ERS12561789”; details: 2 µM
[30] = human gut metagenome, 24 h, 2 µM; remark: listed apart in the source
[31] = as §1, with “WLS-098” for “WLS-350”, “ERS12561754” for “ERS12561789”; details: 2 µM
[32] = as §1, with “WLS-069” for “WLS-350”, “ERS12561748” for “ERS12561789”; details: 2 µM
[33] = human gut metagenome, 24 h, 2 µM; remark: listed apart in the source
[34] = as §1, with “WLS-052” for “WLS-350”, “ERS12561747” for “ERS12561789”; details: 2 µM
[35] = human gut metagenome, 24 h, 2 µM; remark: listed apart in the source
[36] = human gut metagenome, 24 h, 2 µM; remark: listed apart in the source
[37] = human gut metagenome, 24 h, 2 µM; remark: listed apart in the source
[38] = human gut metagenome, 24 h, 2 µM; remark: listed apart in the source
[39] = as §1, with “WLS-220” for “WLS-350”, “ERS12561769” for “ERS12561789”; details: 2 µM
[40] = as §1, with “WLS-082” for “WLS-350”, “ERS12561751” for “ERS12561789”; details: 2 µM
[41] = human gut metagenome, 24 h, 2 µM; remark: listed apart in the source
[42] = as §1, with “WLS-027” for “WLS-350”, “ERS12561744” for “ERS12561789”; details: 2 µM
[43] = human gut metagenome, 24 h, 2 µM; remark: listed apart in the source
[44] = human gut metagenome, 24 h, 2 µM; remark: listed apart in the source
[45] = human gut metagenome, 24 h, 2 µM; remark: listed apart in the source
[46] = human gut metagenome, 24 h, 2 µM; remark: listed apart in the source
[47] = human gut metagenome, 24 h, 2 µM; remark: listed apart in the source
[48] = as §1, with “Z-004” for “WLS-350”, “to” for “to human gut”, “ERS12561804” for “ERS12561789”; details: 2 µM
[49] = as §1, with “WLS-170” for “WLS-350”, “ERS12561762” for “ERS12561789”; details: 2 µM
[50] = human gut metagenome, 24 h, 2 µM; remark: listed apart in the source
[51] = human gut metagenome, 24 h, 2 µM; remark: listed apart in the source
[52] = human gut metagenome, 24 h, 2 µM; remark: listed apart in the source
[53] = as §1, with “WLS-370” for “WLS-350”, “ERS12561793” for “ERS12561789”; details: 2 µM
[54] = human gut metagenome, 24 h, 2 µM; remark: listed apart in the source
[55] = as §1, with “Z-003” for “WLS-350”, “pig” for “human”, “ERS12561803” for “ERS12561789”; details: 2 µM
[56] = human gut metagenome, 24 h, 2 µM; remark: listed apart in the source
[57] = as §1, with “WLS-010” for “WLS-350”, “ERS12561743” for “ERS12561789”; details: 2 µM
[58] = human gut metagenome, 24 h, 2 µM; remark: listed apart in the source
[59] = as §1, with “WLS-086” for “WLS-350”, “ERS12561752” for “ERS12561789”; details: 2 µM
[60] = human gut metagenome, 24 h, 2 µM; remark: listed apart in the source
[61] = human gut metagenome, 24 h, 2 µM; remark: listed apart in the source
[62] = as §1, with “WLS-039” for “WLS-350”, “ERS12561746” for “ERS12561789”; details: 2 µM
[63] = as §1, with “Z-006” for “WLS-350”, “mouse” for “human”, “ERS12561806” for “ERS12561789”; details: 2 µM
[64] = as §1, with “Z-026” for “WLS-350”, “to” for “to human gut”, “ERS12561825” for “ERS12561789”; details: 2 µM
[65] = as §1, with “Z-002” for “WLS-350”, “rabbit” for “human”, “ERS12561802” for “ERS12561789”; details: 2 µM
[66] = as §1, with “Z-009” for “WLS-350”, “pig” for “human”, “ERS12561809” for “ERS12561789”; details: 2 µM
[67] = as §1, with “Z-021” for “WLS-350”, “to” for “to human gut”, “ERS12561820” for “ERS12561789”; details: 2 µM
[68] = as §1, with “Z-008” for “WLS-350”, “to” for “to human gut”, “ERS12561808” for “ERS12561789”; details: 2 µM
[69] = as §1, with “Z-023” for “WLS-350”, “to” for “to human gut”, “ERS12561822” for “ERS12561789”; details: 2 µM
[70] = as §1, with “Z-012” for “WLS-350”, “to” for “to human gut”, “ERS12561812” for “ERS12561789”; details: 2 µM
Further: call rule not given here.

Bacterial Biotransformation [1]: Compound metabolized
Bacterial Biotransformation [2]: Compound metabolized
Bacterial Biotransformation [3]: Compound metabolized
Bacterial Biotransformation [4]: Compound metabolized
Bacterial Biotransformation [5]: Compound metabolized
Bacterial Biotransformation [6]: Compound metabolized
Bacterial Biotransformation [7]: Compound metabolized
Bacterial Biotransformation [8]: Compound metabolized
Bacterial Biotransformation [9]: Compound metabolized
Bacterial Biotransformation [10]: Compound metabolized
Bacterial Biotransformation [11]: Compound metabolized
Bacterial Biotransformation [12]: Compound metabolized
Bacterial Biotransformation [13]: Compound metabolized
Bacterial Biotransformation [14]: Compound metabolized
Bacterial Biotransformation [15]: Compound metabolized
Bacterial Biotransformation [16]: Compound metabolized
Bacterial Biotransformation [17]: Compound metabolized
Bacterial Biotransformation [18]: Compound metabolized
Bacterial Biotransformation [19]: Compound metabolized
Bacterial Biotransformation [20]: Compound metabolized
Bacterial Biotransformation [21]: Compound metabolized
Bacterial Biotransformation [22]: Compound metabolized
Bacterial Biotransformation [23]: Compound metabolized
Bacterial Biotransformation [24]: Compound metabolized
Bacterial Biotransformation [25]: Compound metabolized
Bacterial Biotransformation [26]: Compound metabolized
Bacterial Biotransformation [27]: Compound metabolized
Bacterial Biotransformation [28]: Compound metabolized
Bacterial Biotransformation [29]: Compound metabolized
Bacterial Biotransformation [30]: Compound metabolized
Bacterial Biotransformation [31]: Compound metabolized
Bacterial Biotransformation [32]: Compound metabolized
Bacterial Biotransformation [33]: Compound metabolized
Bacterial Biotransformation [34]: Compound metabolized
Bacterial Biotransformation [35]: Compound metabolized
Bacterial Biotransformation [36]: Compound metabolized
Bacterial Biotransformation [37]: Compound metabolized
Bacterial Biotransformation [38]: Compound metabolized
Bacterial Biotransformation [39]: Compound metabolized
Bacterial Biotransformation [40]: Compound metabolized
Bacterial Biotransformation [41]: Compound metabolized
Bacterial Biotransformation [42]: Compound metabolized
Bacterial Biotransformation [43]: Compound metabolized
Bacterial Biotransformation [44]: Compound metabolized
Bacterial Biotransformation [45]: Compound metabolized
Bacterial Biotransformation [46]: Compound metabolized
Bacterial Biotransformation [47]: Compound metabolized
Bacterial Biotransformation [48]: Compound metabolized
Bacterial Biotransformation [49]: Compound metabolized
Bacterial Biotransformation [50]: Compound metabolized
Bacterial Biotransformation [51]: Compound metabolized
Bacterial Biotransformation [52]: Compound metabolized
Bacterial Biotransformation [53]: Compound metabolized
Bacterial Biotransformation [54]: Compound metabolized
Bacterial Biotransformation [55]: Compound metabolized
Bacterial Biotransformation [56]: Compound metabolized
Bacterial Biotransformation [57]: Compound metabolized
Bacterial Biotransformation [58]: Compound metabolized
Bacterial Biotransformation [59]: Compound metabolized
Bacterial Biotransformation [60]: Compound metabolized
Bacterial Biotransformation [61]: Compound metabolized
Bacterial Biotransformation [62]: Compound metabolized
SMILES: CC(=O)Oc1ccc(C(c2ccc(OC(C)=O)cc2)c2ccccn2)cc1 [BISACODYL]

Bacterial Biotransformation [63]: Compound NOT metabolized
Bacterial Biotransformation [64]: Compound metabolized
Bacterial Biotransformation [65]: Compound NOT metabolized
Bacterial Biotransformation [66]: Compound metabolized
Bacterial Biotransformation [67]: Compound NOT metabolized
Bacterial Biotransformation [68]: Compound NOT metabolized
Bacterial Biotransformation [69]: Compound metabolized
Bacterial Biotransformation [70]: Compound metabolized
SMILES: CN1CCN(CCCN2c3ccccc3Sc3ccc(Cl)cc32)CC1.O=S(=O)(O)CCS(=O)(=O)O [PROCHLORPERAZINE EDISYLATE]
